Tested on: SARS-CoV-2
Experiment: microbe, parasite or virus in culture
Settings: Severe acute respiratory syndrome coronavirus 2, Vero C1008, 48 h

| Compound | IC50 | IC50 (read-out: pIC50 (converted)) |
| --- | --- | --- |
| CCC(=O)O[C@@H]1CC(=O)O[C@H](C)C/C=C\C=C/[C@@H](O)[C@H](C)C[C@H](CC=O)[C@H](O[C@H]2O[C@H](C)[C@@H](O[C@H]3C[C@@](C)(O)[C@@H](OC(=O)CC)[C@H](C)O3)[C@H](N(C)C)[C@H]2O)[C@H]1OC | > 20 µM | > 20 µM |
| CC[N+](C)(CC)CCC[n+]1c(-c2ccccc2)c2cc(N)ccc2c2ccc(N)cc21 | > 20 µM | > 20 µM |
| O=C(O)c1ccc2[nH]nnc2c1 | > 20 µM | > 20 µM |
| COc1cc2[nH]c(C)c(CCN3CCN(c4ccccc4OC)CC3)c2cc1OC [MILIPERTINE] | > 20 µM | > 20 µM |
| CO/N=C(\C(=O)N[C@@H]1C(=O)N2C(C(=O)O)=C(C[N+]3(C)CCCC3)CS[C@H]12)c1csc(N)n1 | > 20 µM | > 20 µM |
| C=CCN1CCc2nc(N)sc2CC1 [TALIPEXOLE] | > 20 µM | > 20 µM |
| CC1CCC(C(C)C)C(=O)C1 (configuration not stated) | > 20 µM | > 20 µM |
| COc1cc2c(cc1OC)-c1cc3ccc(OC)c(OC)c3c[n+]1CC2 [PALMITINE] | > 20 µM | > 20 µM |
| COc1cccc(OC)c1C(=O)N[C@@H]1C(=O)N2[C@@H]1SC(C)(C)[C@@H]2C(=O)O [METHICILLIN] | > 20 µM | > 20 µM |
| CCC[C@@H]1C[C@@H](C(=O)N[C@@H]([C@H]2O[C@H](SC)[C@H](O)[C@@H](O)[C@H]2O)[C@@H](C)O)N(C)C1 [LINCOMYCIN] | > 20 µM | > 20 µM |
| CC(=O)OC(Cc1ccccc1)(c1ccccc1)C(C)CN1CCCC1 (configuration not stated) [PYRROLIPHENE] | > 20 µM | > 20 µM |
| NC(=O)c1cccnc1 [NIACINAMIDE] | > 20 µM | > 20 µM |
| C/C(=N/NC(=N)N)c1cc(NC(=O)CCCCCCCCC(=O)Nc2cc(/C(C)=N\NC(=N)N)cc(/C(C)=N/NC(=N)N)c2)cc(/C(C)=N/NC(=N)N)c1 | > 20 µM | > 20 µM |
| C[C@@H]1O[C@@H]1P(=O)(O)O [FOSFOMYCIN] | > 20 µM | > 20 µM |
| Cc1nc(O)c2cc(CN(C)c3ccc(C(=O)NC(CCC(=O)O)C(=O)O)s3)ccc2n1 (configuration not stated) | > 20 µM | > 20 µM |
| CSc1ccc(C(=O)c2[nH]c(=O)[nH]c2C)cc1 [ENOXIMONE] | > 20 µM | > 20 µM |
| O=C(O)C1=CCNCC1 [ISOGUVACINE] | > 20 µM | > 20 µM |
| CNCc1ccc(-c2[nH]c3cc(F)cc4c3c2CCNC4=O)cc1 [RUCAPARIB] | > 20 µM | > 20 µM |
| NC(CC(=O)NO)C(=O)O (configuration not stated) | > 20 µM | > 20 µM |
| O=c1n(CCCN2CCN(c3cccc(Cl)c3)CC2)nc2ccccn12 [TRAZODONE] | > 20 µM | > 20 µM |
| CN1CCc2cccc3c2[C@H]1Cc1ccc(O)c(O)c1-3 [APOMORPHINE] | > 20 µM | > 20 µM |
| CCN(CC)CC(=O)OCC(=O)C1(O)CCC2C3CCC4=CC(=O)CCC4(C)C3C(O)CC21C (configuration not stated) | > 20 µM | > 20 µM |
| CCC12CCN(CC3(O)CC3)C(Cc3ccc(O)cc31)C2(C)C (configuration not stated) [BREMAZOCINE] | > 20 µM | > 20 µM |
| COC(=O)C1=C(CN2CC(F)(F)C[C@H]2C(=O)O)NC(c2nccs2)=N[C@@]1(C)c1ccc(F)cc1 | > 20 µM | > 20 µM |
| Cc1[nH]cnc1C[C@H]1CCc2c(C)c3ccccc3n2C1=O [FABESETRON] | > 20 µM | > 20 µM |
| CCCCC(=O)N(Cc1ccc(-c2ccccc2-c2nnn[nH]2)cc1)[C@H](C(=O)O)C(C)C | > 20 µM | > 20 µM |

| Compound | IC50 | IC50 (read-out: pIC50 (converted)) |
| --- | --- | --- |
| Cc1ncc(COP(=O)(O)O)c(C=O)c1O [PYRIDOXAL PHOSPHATE ANHYDROUS] | > 20 µM | > 20 µM |
| CC(=O)Nc1ccc(C(=O)Nc2ccccc2N)cc1 [TACEDINALINE] | > 20 µM | > 20 µM |
| CC(C)(Sc1cc(C(C)(C)C)c(O)c(C(C)(C)C)c1)Sc1cc(C(C)(C)C)c(O)c(C(C)(C)C)c1 [PROBUCOL] | > 20 µM | > 20 µM |
| O=c1[nH]c2ccccc2n1C1CCN(CCOc2ccccc2)CC1 [OXIPEROMIDE] | > 20 µM | > 20 µM |
| Cc1cc(-c2nc(CN3CCNCC3)no2)cc2c1C(=O)N(Cc1ccc(OC(F)(F)F)cc1)C2 | > 20 µM | > 20 µM |
| c1ccc([C@H]2CN3CCSC3=N2)cc1 [LEVAMISOLE] | > 20 µM | > 20 µM |
| CC(=O)NCCOC(=O)[C@H](Oc1cccc(C(F)(F)F)c1)c1ccc(Cl)cc1 [ARHALOFENATE] | > 20 µM | > 20 µM |
| CC1(C)Cc2c(-c3ccccc3)c(-c3ccc(Cl)cc3)c(CC(=O)O)n2C1 [LICOFELONE] | > 20 µM | > 20 µM |
| CN1Cc2cc(C3=NNC(=O)CC3)ccc2NC1=O [PRINOXODAN] | > 20 µM | > 20 µM |
| c1cncc(C2=NCCC2)c1 [MYOSMINE] | > 20 µM | > 20 µM |
| NC[C@@H]1OB(O)c2c(OCCCO)cccc21 | > 20 µM | > 20 µM |
| CCCc1ccc(C(=O)O)nc1 | > 20 µM | > 20 µM |
| COc1cc(C(C)=O)ccc1O [APOCYNIN] | > 20 µM | > 20 µM |
| O=C(O[C@@H]1Cc2c(O)cc(O)cc2O[C@H]1c1cc(O)c(O)c(O)c1)c1cc(O)c(O)c(O)c1 [GALLOCATECHIN GALLATE] | > 20 µM | > 20 µM |
| CCOc1nc2cccc(C(=O)O)c2n1Cc1ccc(-c2ccccc2-c2noc(=O)[nH]2)cc1 [AZILSARTAN] | > 20 µM | > 20 µM |
| CCN(CC)CCOC(=O)C(c1ccccc1)C1(O)CCCC1 (configuration not stated) | > 20 µM | > 20 µM |
| C=C1CC23CCC4C(C)(C(=O)O)CCCC4(C)C2CCC1(OC1OC(CO)C(O)C(O)C1OC1OC(CO)C(O)C(O)C1O)C3 (configuration not stated) | > 20 µM | > 20 µM |
| COc1ccc(C(CN(C)C)C2(O)CCCCC2)cc1 (configuration not stated) [VENLAFAXINE] | > 20 µM | > 20 µM |
| CC1CCC(C(C)C)C(O)C1 (configuration not stated) [MENTHOL] | > 20 µM | > 20 µM |
| COC[C@H](O)Cn1c(=O)cnn(-c2ccc(Cl)c(C(=O)NCC3(O)CCCCCC3)c2)c1=O [CE-224535] | > 20 µM | > 20 µM |
| CC(CN1CCOCC1)C(C(=O)N1CCCC1)(c1ccccc1)c1ccccc1 (racemic) [RACEMORAMIDE] | > 20 µM | > 20 µM |
| CCCNC(C)(C)COC(=O)c1ccccc1 [MEPRYLCAINE] | > 20 µM | > 20 µM |
| NS(=O)(=O)OC[C@@H]1C[C@@H](n2ccc3c(N[C@H]4CCc5ccccc54)ncnc32)C[C@@H]1O [PEVONEDISTAT] | > 20 µM | > 20 µM |
| CC(=O)Nc1ccc(/C=N/NC(N)=S)cc1 [AMITHIOZONE] | > 20 µM | > 20 µM |
| Cc1ncc(CO)c(CO)c1O [PYRIDOXINE] | > 20 µM | > 20 µM |
| Cc1nc(NC(=O)N2CCC[C@H]2C(N)=O)sc1-c1ccnc(C(C)(C)C(F)(F)F)c1 [ALPELISIB] | > 20 µM | > 20 µM |

| Compound | IC50 | IC50 (read-out: pIC50 (converted)) |
| --- | --- | --- |
| C/C(O)=C(\C#N)C(=O)Nc1ccc(C(F)(F)F)cc1 [TERIFLUNOMIDE] | > 20 µM | > 20 µM |
| COc1ccc(CN(C(=O)[C@@H](N)Cc2c(C)cc(C(N)=O)cc2C)[C@H](C)c2nc(-c3ccccc3)c[nH]2)cc1C(=O)O | > 20 µM | > 20 µM |
| CC12CCC3C(CC[C@H]4CC(=O)CCC34C)C1CCC2C(=O)CO (some centres not stated) | > 20 µM | > 20 µM |
| NCCCC[C@H](NC(=O)[C@@H](Cc1cc(Br)c(O)c(Br)c1)NC(=O)N1CCC(N2Cc3ccccc3NC2=O)CC1)C(=O)N1CCN(c2ccncc2)CC1 [OLCEGEPANT] | > 20 µM | > 20 µM |
| C[C@@H](NCCCc1cccc(C(F)(F)F)c1)c1cccc2ccccc12 | > 20 µM | > 20 µM |
| COC1=C(OC)C(=O)C(CCCCCCCCCCO)=C(C)C1=O [IDEBENONE] | > 20 µM | > 20 µM |
| CC(C)[C@@H](N)C(=O)O | > 20 µM | > 20 µM |
| COc1ccc2c(c1O)-c1c(OC)c(OC)cc3c1[C@H](C2)N(C)CC3 [ISOCORYDINE] | > 20 µM | > 20 µM |
| Cc1cc(CCCCCCCOc2ccc(C3=NCCO3)cc2)on1 [DISOXARIL] | > 20 µM | > 20 µM |
| CC(CN(C)C)C(C)(O)Cc1ccc(Cl)cc1 (configuration not stated) [CLOBUTINOL] | > 20 µM | > 20 µM |
| CC(=O)NCCCCCCNC(C)=O [HEXAMETHYLENEBISACETAMIDE] | > 20 µM | > 20 µM |
| COc1cc2ncnc(Oc3cccc(NC(=O)Nc4cc(C(C)(C)C(F)(F)F)on4)c3)c2cc1OC [CEP-32496] | > 20 µM | > 20 µM |
| enfuvirtide | > 20 µM | > 20 µM |
| O=c1c2ccccc2[se]n1-c1ccccc1 [EBSELEN] | > 20 µM | > 20 µM |
| Cc1ncc([N+](=O)[O-])n1CCOC(N)=O [BAMNIDAZOLE] | > 20 µM | > 20 µM |
| CC[C@H](C)C(=O)O[C@H]1C[C@H](O)C=C2C=C[C@H](C)[C@H](CC[C@@H](O)C[C@@H](O)CC(=O)O)[C@H]21 [PRAVASTATIN] | > 20 µM | > 20 µM |
| CC(=O)OCC(=O)C1CCC2C3CC=C4CC(O)CCC4(C)C3CCC12C (configuration not stated) | > 20 µM | > 20 µM |
| CN(Cc1ccc(C(C)(C)C)cc1)Cc1cccc2ccccc12 [BUTENAFINE] | > 20 µM | > 20 µM |
| CN1CCN(C2=Nc3cscc3/C(=C/C#N)c3cscc32)CC1 [TENILAPINE] | > 20 µM | > 20 µM |
| CC(=O)OCC(=O)[C@@]1(O)CCC2C3CCC4=CC(=O)CC[C@]4(C)C3=CC[C@@]21C (some centres not stated) | > 20 µM | > 20 µM |
| CC(=O)OCC1OC(n2ccc(=O)[nH]c2=O)C(OC(C)=O)C1OC(C)=O (configuration not stated) | > 20 µM | > 20 µM |
| CN(C)CCc1c[nH]c2ccc(O)cc12 [BUFOTENINE] | > 20 µM | > 20 µM |
| CC(C)(C)NCC(O)c1cc(O)cc(O)c1 (configuration not stated) [TERBUTALINE] | > 20 µM | > 20 µM |
| C[N+]1(C)CCN(CC(O)(c2ccccc2)C2CCCCC2)CC1 (configuration not stated) [HEXOCYCLIUM] | > 20 µM | > 20 µM |
